The subject of assay [1] is isolated perfused rat heart. As to the kind of experiment: Recovery of left ventricular developed pressure in isolated perfused rat heart after 10 min total ischemia. The settings on record: for % of Control Developed Pressure, 15' RP: 15' reperfusion; for % of Control Developed Pressure, 15' RP / % of Control Developed Pressure, 30' RP / % of Control Developed Pressure, 60' RP: 37° C., N ≥ 5; for % of Control Developed Pressure, 30' RP: 30' reperfusion; for % of Control Developed Pressure, 60' RP: 60' reperfusion; for contractile function of the isolated perfused rat heart: in words, after 10 minutes of total ischemia. Further details: % of Control Developed Pressure, 15' RP / % of Control Developed Pressure, 30' RP / % of Control Developed Pressure, 60' RP: concentration or dose not given beside the values. How it is done: This hypothesis was also tested using the aforementioned isolated rat heart model. The effects of adenosine and hypoxanthine on the recovery of cardiac contractile function was assessed by the determination of left ventricular developed pressure during the post-ischemic reperfusion phase with the use of an intra-ventricular saline filled balloon.

The test system of assay [2] is myocardial ATP (isolated perfused rat heart). As to the kind of experiment: Myocardial ATP in Langendorff isolated perfused rat heart before, during and after 10 min ischemia. Particulars: 100 μM; for ATP, 10' Ischemia / ATP, 15' RP / ATP, 30' RP / ATP, 60' RP / ATP, Equilibration: 37° C., N ≥ 5; for ATP, 15' RP: 15' reperfusion; for ATP, 30' RP: 30' reperfusion; for ATP, 60' RP: 60' reperfusion; for ATP, Equilibration: pre-ischemic equilibration; for nucleotide pools (ATP) during ischemia and/or post-ischemic reperfusion: in words, isolated rat heart.

Turning to `Nc1ncnc2c1ncn2[C@@H]1O[C@H](CO)[C@@H](O)[C@H]1O` [Adenosine, adenosine], in assay [1], the “% of Control Developed Pressure, 15' RP” value is 86 ± 3%; the “% of Control Developed Pressure, 30' RP” value is given as 96 ± 3%; the “% of Control Developed Pressure, 60' RP” value amounted to 95 ± 3%; the “contractile function of the isolated perfused rat heart” value was “capable of restoring the contractile function”. Moreover, in assay [2], the “ATP, 10' Ischemia” value worked out at 1.7 ± 0.1 μmoles/g wet weight; the “ATP, 15' RP” value was 2.9 ± .08 μmoles/g wet weight; the “ATP, 30' RP” value is given as 2.7 ± .08 μmoles/g wet weight; the “ATP, 60' RP” value is recorded as 2.7 ± .06 μmoles/g wet weight. Moreover, in assay [2], the “ATP, Equilibration” value stood at 3.9 ± 0.4 μmoles/g wet weight and the “nucleotide pools (ATP) during ischemia and/or post-ischemic reperfusion” value was “able to enhance nucleotide pools (ATP) during ischemia and/or during the post-ischemic reperfusion period”.

Consider `O=c1[nH]cnc2nc[nH]c12` [Hypoxanthine, hypoxanthine], for which, in assay [1], the “% of Control Developed Pressure, 15' RP” value is recorded as 84 ± 5%; the “% of Control Developed Pressure, 30' RP” value is on record as 88 ± 2%; the “% of Control Developed Pressure, 60' RP” value was 87 ± 3%; the “contractile function of the isolated perfused rat heart” value is “capable of restoring the contractile function”. In assay [2], the “ATP, 10' Ischemia” value was 1.4 ± .2 μmoles/g wet weight; the “ATP, 15' RP” value is listed as 2.7 ± .2 μmoles/g wet weight; the “ATP, 30' RP” value is reported as 2.7 ± .1 μmoles/g wet weight; the “ATP, 60' RP” value was 2.3 ± .1 μmoles/g wet weight. In assay [2], the “ATP, Equilibration” value was 3.4 ± .2 μmoles/g wet weight and the “nucleotide pools (ATP) during ischemia and/or post-ischemic reperfusion” value is listed as “able to enhance nucleotide pools (ATP) during ischemia and/or during the post-ischemic reperfusion period”.

(Values after patent publication US4880783A, “Use of adenosine, hypoxanthine and ribose-containing solution for improved protection of the heart during surgery” (University of Virginia Alumnia Patents Foundation, priority 1988, dated 1989).)
